This note sets out measurements from US9650339B2, “Inhibitors of histone demethylases” (Gilead Sciences, Inc., priority 2013, dated 2017).

A word on the IC50: it is the concentration that inhibits the measured activity by half.

Common to all, as to type: biochemical
One assay deals with T1, KDM4A (JMJD2A) (Homo sapiens, UniProt O75164).
T1 construct: 1-350; purchased BPS Bioscience, US; host or cells: E. coli
T1 sequence (O75164 1-350): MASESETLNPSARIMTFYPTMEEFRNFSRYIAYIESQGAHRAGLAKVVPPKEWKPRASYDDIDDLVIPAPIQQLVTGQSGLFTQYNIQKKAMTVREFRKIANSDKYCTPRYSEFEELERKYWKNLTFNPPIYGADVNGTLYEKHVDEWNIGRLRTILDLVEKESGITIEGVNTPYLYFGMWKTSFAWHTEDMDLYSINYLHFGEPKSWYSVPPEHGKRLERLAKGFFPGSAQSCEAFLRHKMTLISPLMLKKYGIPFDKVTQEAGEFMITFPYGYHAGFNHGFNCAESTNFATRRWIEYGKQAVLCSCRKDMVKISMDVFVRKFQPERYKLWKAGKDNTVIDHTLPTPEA
Kind of assay: Histone lysine demethylase AlphaLISA assay, KDM4A. The following applies: read-out: KDM4A HDME Inhibition IC50. Put shortly: (§1)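 Steps: enzyme equilibrated 10 min in buffer; compounds in 3% DMSO solution added, 10 min; substrate mix added (peptide, 25 μM L-Asc, 10 μM α-KG), room temperature; acceptor beads, then streptavidin donor beads, dark incubations; plate read.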
(In general: Alpha assays give light when donor and acceptor beads are brought close together.)

The next assay deals with T2, KDM4C (JMJD2C) (Homo sapiens, UniProt Q9H3R0).
T2 sequence (Q9H3R0 1-349): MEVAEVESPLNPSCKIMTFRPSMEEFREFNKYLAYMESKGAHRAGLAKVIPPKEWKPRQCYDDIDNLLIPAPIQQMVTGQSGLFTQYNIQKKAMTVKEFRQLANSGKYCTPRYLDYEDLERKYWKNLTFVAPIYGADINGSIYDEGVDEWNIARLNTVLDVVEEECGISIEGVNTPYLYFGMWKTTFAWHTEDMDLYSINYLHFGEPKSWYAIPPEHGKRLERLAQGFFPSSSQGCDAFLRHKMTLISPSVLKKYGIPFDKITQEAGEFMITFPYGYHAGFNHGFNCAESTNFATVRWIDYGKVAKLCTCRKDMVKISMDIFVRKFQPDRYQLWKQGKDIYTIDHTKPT
Description: Histone lysine demethylase AlphaLISA assay, KDM4C. The following applies: read-out: KDM4C HDME Inhibition IC50. The gist of the method: as §1

Another assay has as its target T3, KDM5C (JARID1C) (Homo sapiens, UniProt P41229).
T3 construct: 2-1560; purchased BPS; host or cells: Bac (baculovirus system)
Kind of assay: Histone lysine demethylase AlphaLISA assay, KDM5C. The following applies: read-out: KDM5C HDME Inhibition IC50. Put shortly:
as §1

In another assay the target is T4, KDM5B (PLU-1) (Homo sapiens, UniProt Q9UGL1).
T4 sequence (Q9UGL1 1-809): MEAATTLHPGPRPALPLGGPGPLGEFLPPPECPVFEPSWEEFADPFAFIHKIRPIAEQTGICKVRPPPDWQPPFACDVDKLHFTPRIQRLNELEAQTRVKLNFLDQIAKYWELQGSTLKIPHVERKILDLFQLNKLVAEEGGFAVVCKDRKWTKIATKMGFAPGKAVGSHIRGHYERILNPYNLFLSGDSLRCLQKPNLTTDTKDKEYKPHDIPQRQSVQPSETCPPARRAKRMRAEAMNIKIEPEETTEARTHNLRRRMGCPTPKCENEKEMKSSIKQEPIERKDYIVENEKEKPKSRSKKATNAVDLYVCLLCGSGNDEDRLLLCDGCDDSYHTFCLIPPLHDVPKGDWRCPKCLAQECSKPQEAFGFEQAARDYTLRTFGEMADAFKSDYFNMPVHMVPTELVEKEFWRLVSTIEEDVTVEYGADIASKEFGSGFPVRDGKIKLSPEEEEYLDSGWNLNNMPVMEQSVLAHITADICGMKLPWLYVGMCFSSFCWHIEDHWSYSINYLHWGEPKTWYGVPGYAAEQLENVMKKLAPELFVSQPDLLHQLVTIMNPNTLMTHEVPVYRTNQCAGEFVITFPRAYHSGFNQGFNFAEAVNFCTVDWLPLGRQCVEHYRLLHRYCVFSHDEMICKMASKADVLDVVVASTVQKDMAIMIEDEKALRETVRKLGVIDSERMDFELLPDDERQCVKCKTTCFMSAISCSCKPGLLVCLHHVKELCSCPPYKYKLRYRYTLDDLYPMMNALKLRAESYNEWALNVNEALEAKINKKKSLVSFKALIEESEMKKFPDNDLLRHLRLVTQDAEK
Kind of assay: Histone lysine demethylase AlphaLISA assay, KDM5B. To be noted: read-out: KDM5B HDME Inhibition IC50. The gist of the method: as §1

The target of the next assay is T5, KDM6B (JMJD3) (Homo sapiens, UniProt O15054).
T5 construct: 1043-end; purchased BPS; host or cells: Bac (baculovirus system)
T5 sequence (O15054 1043-1682 isoform O15054-1 limits assumed): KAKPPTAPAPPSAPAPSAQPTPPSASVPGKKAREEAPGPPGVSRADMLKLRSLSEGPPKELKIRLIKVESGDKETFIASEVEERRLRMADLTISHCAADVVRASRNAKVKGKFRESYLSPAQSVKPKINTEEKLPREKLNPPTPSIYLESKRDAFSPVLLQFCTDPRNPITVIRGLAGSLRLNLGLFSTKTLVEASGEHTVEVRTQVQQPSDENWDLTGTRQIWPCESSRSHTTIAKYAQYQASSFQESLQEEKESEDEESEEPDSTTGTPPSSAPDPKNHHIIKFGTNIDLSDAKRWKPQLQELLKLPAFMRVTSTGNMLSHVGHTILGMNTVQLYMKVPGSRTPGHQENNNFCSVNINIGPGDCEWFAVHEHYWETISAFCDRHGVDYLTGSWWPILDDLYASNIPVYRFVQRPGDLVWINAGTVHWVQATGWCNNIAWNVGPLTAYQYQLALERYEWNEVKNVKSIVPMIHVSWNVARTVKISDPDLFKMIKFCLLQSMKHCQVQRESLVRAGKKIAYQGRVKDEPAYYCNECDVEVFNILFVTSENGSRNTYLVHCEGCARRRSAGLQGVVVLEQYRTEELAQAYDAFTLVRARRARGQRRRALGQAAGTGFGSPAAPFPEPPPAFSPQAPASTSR
Kind of assay: Histone lysine demethylase AlphaLISA assay, KDM6B. The following applies: read-out: KDM6B HDME Inhibition IC50. Put shortly:
as §1

Another assay deals with T6, KDM7 (PHF8) (Homo sapiens, UniProt Q9UPP1).
T6 construct: KDM7 (PHF8); BRIC; 1-1322; Bac
T6 sequence (Q9UPP1 37-440 limits assumed): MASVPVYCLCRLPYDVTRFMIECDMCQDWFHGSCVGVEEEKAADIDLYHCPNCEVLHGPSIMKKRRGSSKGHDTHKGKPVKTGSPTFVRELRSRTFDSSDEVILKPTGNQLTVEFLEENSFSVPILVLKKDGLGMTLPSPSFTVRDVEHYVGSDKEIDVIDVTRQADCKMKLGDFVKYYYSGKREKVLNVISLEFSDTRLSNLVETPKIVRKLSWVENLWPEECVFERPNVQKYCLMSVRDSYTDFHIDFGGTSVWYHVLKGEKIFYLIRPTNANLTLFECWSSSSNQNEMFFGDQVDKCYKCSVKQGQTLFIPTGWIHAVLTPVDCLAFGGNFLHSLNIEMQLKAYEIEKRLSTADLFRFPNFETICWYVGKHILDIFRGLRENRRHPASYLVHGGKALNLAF
Kind of assay: Histone lysine demethylase AlphaLISA assay, KDM7. To be noted: read-out: PHF8 HDME Inhibition IC50. Put shortly:
as §1

Structures are written as SMILES. Where only a bound is given, the exact number is not on record here.

T3 sequence (P41229 2-1560): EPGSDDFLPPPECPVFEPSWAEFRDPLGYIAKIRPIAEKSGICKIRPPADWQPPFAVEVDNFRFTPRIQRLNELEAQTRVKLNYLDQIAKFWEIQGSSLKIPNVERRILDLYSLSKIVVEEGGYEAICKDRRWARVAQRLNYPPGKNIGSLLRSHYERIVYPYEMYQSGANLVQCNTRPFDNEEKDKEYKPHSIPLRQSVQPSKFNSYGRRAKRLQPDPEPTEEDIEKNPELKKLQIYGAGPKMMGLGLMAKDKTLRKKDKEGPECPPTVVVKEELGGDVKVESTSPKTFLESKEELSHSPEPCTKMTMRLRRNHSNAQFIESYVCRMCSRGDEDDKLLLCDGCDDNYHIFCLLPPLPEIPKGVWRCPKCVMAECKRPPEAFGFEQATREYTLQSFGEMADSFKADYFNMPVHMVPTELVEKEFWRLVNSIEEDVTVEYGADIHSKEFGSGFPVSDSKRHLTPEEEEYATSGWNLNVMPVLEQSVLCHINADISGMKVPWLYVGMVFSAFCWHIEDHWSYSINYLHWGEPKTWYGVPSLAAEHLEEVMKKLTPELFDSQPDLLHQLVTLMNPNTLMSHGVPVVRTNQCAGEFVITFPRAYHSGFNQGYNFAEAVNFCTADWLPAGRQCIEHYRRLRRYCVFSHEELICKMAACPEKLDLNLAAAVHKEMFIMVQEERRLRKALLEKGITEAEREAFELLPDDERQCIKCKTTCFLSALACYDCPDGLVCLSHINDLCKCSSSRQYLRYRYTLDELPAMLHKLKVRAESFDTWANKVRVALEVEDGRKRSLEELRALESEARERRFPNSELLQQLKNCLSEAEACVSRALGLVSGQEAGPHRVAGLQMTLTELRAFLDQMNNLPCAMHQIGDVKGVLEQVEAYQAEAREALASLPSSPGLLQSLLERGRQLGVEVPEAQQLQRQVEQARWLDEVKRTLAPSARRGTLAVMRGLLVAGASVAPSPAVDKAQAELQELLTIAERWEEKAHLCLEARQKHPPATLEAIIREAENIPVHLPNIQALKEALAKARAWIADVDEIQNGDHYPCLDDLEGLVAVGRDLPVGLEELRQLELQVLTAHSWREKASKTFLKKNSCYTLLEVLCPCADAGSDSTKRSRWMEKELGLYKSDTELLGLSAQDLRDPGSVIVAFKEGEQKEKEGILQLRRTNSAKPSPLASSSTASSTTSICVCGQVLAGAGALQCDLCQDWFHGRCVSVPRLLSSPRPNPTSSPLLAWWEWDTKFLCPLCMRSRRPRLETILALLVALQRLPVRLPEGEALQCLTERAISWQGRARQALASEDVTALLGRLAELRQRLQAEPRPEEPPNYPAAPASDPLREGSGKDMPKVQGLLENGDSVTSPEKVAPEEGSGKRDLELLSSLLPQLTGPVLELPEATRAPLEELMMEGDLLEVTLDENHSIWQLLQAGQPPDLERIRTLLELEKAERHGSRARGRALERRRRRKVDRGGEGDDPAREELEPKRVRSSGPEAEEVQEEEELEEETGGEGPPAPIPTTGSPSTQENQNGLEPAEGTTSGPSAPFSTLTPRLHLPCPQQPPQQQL

In the case of `CN(C)CCCCCNCc1cc(C=O)ccn1` [Compound 114, 2-({[5-(dimethylamino)-pentyl]amino}methyl)-pyridine-4-carbaldehyde], the IC50 is greater than 2.5 µM at KDM4A (JMJD2A); 0.25 to 2.5 µM at KDM4C (JMJD2C); less than 0.25 µM on KDM5C (JARID1C); less than 0.25 µM at KDM5B (PLU-1); greater than 2.5 µM on KDM6B (JMJD3); greater than 2.5 µM at KDM7 (PHF8).
